{
  "source": "patent US11628148B2",
  "about": "“Nail hardening composition and method of use” (WELLA OPERATIONS US, LLC, priority 2017, dated 2023)",
  "key": {"cow hoof samples": {"system": "cow hoof samples", "test": "Three-point bend test (flexural strength) of cow hoof samples immersed 24 hours in test solution", "settings": "for FS (flexural strength): 24 h immersion; for % Increase (flexural strength): only samples thinner than 1.8 mm", "protocol": "1. […] Pack samples in vacuum bag. 2. […] 3. […] Pack samples in vacuum bag. 4. Three-Point Bend Test for Untreated and Treated Cow Hoof Samples • Perform using a Texture Analyzer TAXT Plus from Texture Technologies. • Three point bend test is conducted until sample fracture. • Flexural strength is calculated based on force at break for each sample. Results A 3-point bend test set-up was used to measure the break force of treated and untreated cow hoof slices with thickness ranging from 0.88 mm to 2.75 mm. The flexural strength was calculated for each sample, based on sample thickness and width. For each group, the average flexural strength and the standard deviation were calculated. The p-value for the effect significance was calculated for each treated group versus the corresponding baseline value using ANOVA. Outliers were eliminated using the modified Thompson Tau method. Baseline values were determined for groups of untreated samples. Because the hypothesis is that the crosslinker reacts with thiol groups, the effect of dithiothreitol (DTT), a disulfide reducing agent, was tested as well."}, "[1]": {"test": "Behaviour of the test solution at the highest concentration prepared", "format": "physicochemical", "settings": "3.5% (w/w) BMH in dimethyl sulfoxide"}},
  "data": [
    {"molecule": "O[C@H](CS)[C@H](O)CS", "note": "(racemic) [DTT, dithiothreitol]", "values": [
      {"measurement": "Effect on flexural strength (in words)", "setting": "cow hoof samples; disulfide reducing agent, results not shown", "value": "no significant effect"}
    ]},
    {"molecule": "O=C1C=CC(=O)N1CCCCCCN1C(=O)C=CC1=O", "note": "[Bismaleimidohexane, bismaleimidohexane]", "values": [
      {"measurement": "Observation on the solution", "setting": "[1]", "value": "Gelification"},
      {"measurement": "Observation on the solution", "setting": "[1]; listed as BMH", "value": "gelification"},
      {"measurement": "% increase (flexural strength vs baseline)", "setting": "cow hoof samples; 1% BMH in dimethyl sulfoxide", "value": 9.7, "unit": "%"},
      {"measurement": "FS (flexural strength)", "setting": "cow hoof samples; 1% by weight BMH in dimethyl sulfoxide", "value": 158, "unit": "N/mm2"},
      {"measurement": "% increase (flexural strength vs baseline)", "setting": "cow hoof samples; 3% BMH in dimethyl sulfoxide", "value": 8.3, "unit": "%"},
      {"measurement": "FS (flexural strength)", "setting": "cow hoof samples; 3% by weight BMH in dimethyl sulfoxide", "value": 156, "unit": "N/mm2"},
      {"measurement": "Effect on flexural strength (in words)", "setting": "cow hoof samples; BMH at 1% and 3%", "value": "non-significant increase"}
    ]},
    {"molecule": "C=O", "note": "[Formaldehyde, formaldehyde]", "values": [
      {"measurement": "FS (flexural strength)", "setting": "cow hoof samples; 1% by weight formaldehyde in ethanol, all samples", "value": 141, "unit": "N/mm2"},
      {"measurement": "% increase (flexural strength vs baseline)", "setting": "cow hoof samples; 1% formaldehyde in ethanol, all samples", "value": 20.5, "unit": "%"},
      {"measurement": "% Increase (flexural strength)", "setting": "cow hoof samples; 1% formaldehyde", "value": 22.2, "unit": "%"},
      {"measurement": "FS (flexural strength)", "setting": "cow hoof samples; 3% by weight formaldehyde in ethanol, all samples", "value": 132, "unit": "N/mm2"},
      {"measurement": "% increase (flexural strength vs baseline)", "setting": "cow hoof samples; 3% formaldehyde in ethanol, all samples", "value": 12.8, "unit": "%"},
      {"measurement": "% Increase (flexural strength)", "setting": "cow hoof samples; 3% formaldehyde", "value": 15.4, "unit": "%"},
      {"measurement": "FS (flexural strength)", "setting": "cow hoof samples; 5% by weight formaldehyde in ethanol, all samples", "value": 134, "unit": "N/mm2"},
      {"measurement": "% increase (flexural strength vs baseline)", "setting": "cow hoof samples; 5% formaldehyde in ethanol, all samples", "value": 14.5, "unit": "%"},
      {"measurement": "% Increase (flexural strength)", "setting": "cow hoof samples; 5% formaldehyde", "value": 20.5, "unit": "%"}
    ]},
    {"molecule": "NCCCCCCN", "note": "[Hexamethylene diamine, hexamethylene diamine]", "values": [
      {"measurement": "FS (flexural strength)", "setting": "cow hoof samples; 1% by weight hexamethylene diamine alone in ethanol (equal. to 3% H + M)", "value": 132, "unit": "N/mm2"},
      {"measurement": "% increase (flexural strength vs baseline)", "setting": "cow hoof samples; 1% hexamethylene diamine alone in ethanol (equal. to 3% H + M)", "value": 3.9, "unit": "%"},
      {"measurement": "FS (flexural strength)", "setting": "cow hoof samples; 1.7% by weight hexamethylene diamine alone in ethanol (equal. to 5% H + M)", "value": 149, "unit": "N/mm2"},
      {"measurement": "% increase (flexural strength vs baseline)", "setting": "cow hoof samples; 1.7% hexamethylene diamine alone in ethanol (equal. to 5% H + M)", "value": 17.3, "unit": "%"},
      {"measurement": "FS (flexural strength)", "setting": "cow hoof samples; 2.3% by weight hexamethylene diamine alone in ethanol (equal. to 7% H + M)", "value": 122, "unit": "N/mm2"},
      {"measurement": "% increase (flexural strength vs baseline)", "setting": "cow hoof samples; 2.3% hexamethylene diamine alone in ethanol (equal. to 7% H + M)", "value": "−3.9", "unit": "%"},
      {"measurement": "Effect on flexural strength (in words)", "setting": "cow hoof samples; HMD taken separately at 1.7%", "value": "borderline significant strengthening effect"}
    ]},
    {"molecule": "O=C(O)/C=C\\C(=O)O", "note": "[Maleic Acid, maleic acid]", "values": [
      {"measurement": "FS (flexural strength)", "setting": "cow hoof samples; 3.3% by weight maleic acid alone in ethanol (equ. to 5% H + M)", "value": 131, "unit": "N/mm2"},
      {"measurement": "% increase (flexural strength vs baseline)", "setting": "cow hoof samples; 3.3% maleic acid alone in ethanol (equ. to 5% H + M)", "value": 3.1, "unit": "%"},
      {"measurement": "Effect on flexural strength (in words)", "setting": "cow hoof samples; MA taken separately", "value": "does not seem to have any significant effect"}
    ]},
    {"molecule": "Hexamethylene diamine/Maleic acid [Hexamethylene diamine + Maleic acid]", "values": [
      {"measurement": "% increase (flexural strength vs baseline)", "setting": "cow hoof samples; 1% HMD + MA in ethanol, all samples", "value": 13.4, "unit": "%"},
      {"measurement": "% Increase (flexural strength)", "setting": "cow hoof samples; 1% HMD + MA", "value": 20.2, "unit": "%"},
      {"measurement": "FS (flexural strength)", "setting": "cow hoof samples; 1% by weight HMD + MA (1:2) in ethanol, all samples", "value": 144, "unit": "N/mm2"},
      {"measurement": "% increase (flexural strength vs baseline)", "setting": "cow hoof samples; 3% HMD + MA in ethanol, all samples", "value": 17.3, "unit": "%"},
      {"measurement": "% Increase (flexural strength)", "setting": "cow hoof samples; 3% HMD + MA", "value": 24.2, "unit": "%"},
      {"measurement": "FS (flexural strength)", "setting": "cow hoof samples; 3% by weight HMD + MA (1:2) in ethanol, all samples", "value": 149, "unit": "N/mm2"},
      {"measurement": "% increase (flexural strength vs baseline)", "setting": "cow hoof samples; 5% HMD + MA in ethanol, all samples", "value": 17.3, "unit": "%"},
      {"measurement": "% Increase (flexural strength)", "setting": "cow hoof samples; 5% HMD + MA", "value": 28.2, "unit": "%"},
      {"measurement": "FS (flexural strength)", "setting": "cow hoof samples; 5% by weight HMD + MA (1:2) in ethanol, all samples", "value": 149, "unit": "N/mm2"},
      {"measurement": "% increase (flexural strength vs baseline)", "setting": "cow hoof samples; 7% HMD + MA in ethanol, all samples", "value": 3.9, "unit": "%"},
      {"measurement": "FS (flexural strength)", "setting": "cow hoof samples; 7% by weight HMD + MA (1:2) in ethanol, all samples", "value": 132, "unit": "N/mm2"},
      {"measurement": "Effect on flexural strength (in words)", "setting": "cow hoof samples; HMD + MA (1:2 ratio) at 3% and 5% (w/w)", "value": "significant increase"}
    ]}
  ]
}
